Data taken from PubChem BioAssay AID1963965 (Molecular Pharmacology Branch, DTP, NCI, 2024).

Test system: 996289-038-R-J1-PDC spheroid viability
Assay: Anticancer human tumor 996289-038-R-J1-PDC patient-derived colon adenocarcinoma cell line growth inhibition [PI3K]
Settings: spheroids with HUVEC and MSC; for IC50: curve of first compound; for viability, T/C: stronger effect = lower value
How it was run: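 Combination activity was assessed by viability in multicellular tumor spheroids carrying HUVEC and MSC components. Agents were tested with PI3K inhibitors from a Cmax-based top dose (or 10 microM) downward in half-log increments.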

[1] = second compound 0.00316 µM, first compound 0.0316 µM
[2] = second compound 0.00316 µM, first compound 0.1 µM
[3] = second compound 0.00316 µM, first compound 0.316 µM
[4] = second compound 0.00316 µM, first compound 1 µM
[5] = second compound 0.00316 µM, first compound 3.16 µM
[6] = second compound 0.00316 µM, first compound 10 µM
[7] = second compound 0.01 µM, first compound 0.0316 µM
[8] = second compound 0.01 µM, first compound 0.1 µM
[9] = second compound 0.01 µM, first compound 0.316 µM
[10] = second compound 0.01 µM, first compound 1 µM
[11] = second compound 0.01 µM, first compound 3.16 µM
[12] = second compound 0.01 µM, first compound 10 µM
[13] = second compound 0.0316 µM, first compound 0.0316 µM
[14] = second compound 0.0316 µM, first compound 0.1 µM
[15] = second compound 0.0316 µM, first compound 0.316 µM
[16] = second compound 0.0316 µM, first compound 1 µM
[17] = second compound 0.0316 µM, first compound 3.16 µM
[18] = second compound 0.0316 µM, first compound 10 µM
[19] = second compound 0.1 µM, first compound 0.0316 µM
[20] = second compound 0.1 µM, first compound 0.1 µM
[21] = second compound 0.1 µM, first compound 0.316 µM
[22] = second compound 0.1 µM, first compound 1 µM
[23] = second compound 0.1 µM, first compound 3.16 µM
[24] = second compound 0.1 µM, first compound 10 µM
[25] = second compound 0.316 µM, first compound 0.0316 µM
[26] = second compound 0.316 µM, first compound 0.1 µM
[27] = second compound 0.316 µM, first compound 0.316 µM
[28] = second compound 0.316 µM, first compound 1 µM
[29] = second compound 0.316 µM, first compound 3.16 µM
[30] = second compound 0.316 µM, first compound 10 µM
[31] = second compound 1 µM, first compound 0.0316 µM
[32] = second compound 1 µM, first compound 0.1 µM
[33] = second compound 1 µM, first compound 0.316 µM
[34] = second compound 1 µM, first compound 1 µM
[35] = second compound 1 µM, first compound 3.16 µM
[36] = second compound 1 µM, first compound 10 µM
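Note: spheroids exposed to compounds for seven days before viability read.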
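Throughout, for viability, T/C: luminescence used as a proxy for viable cell amount; percent viability relative to DMSO vehicle control as 100%.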

## C#Cc1c(F)ccc2cc(O)cc(-c3ncc4c(N5CC6CCC(C5)N6)nc(OCC56CCCN5CC(F)C6)nc4c3F)c12 (stereo not drawn) + COc1c(OCCCN2CCOCC2)ccc2c3n(c(=NC(=O)c4cnc(N)nc4)nc12)CCN3
Second compound 0.00316 µM
  IC50: 807 nM
Second compound 0.01 µM
  IC50: 507 nM
Second compound 0.0316 µM
  IC50: 231 nM
Second compound 0.1 µM
  IC50: 57.4 nM
Second compound 0.316 µM
  IC50: < 31.6 nM
Second compound 1 µM
  IC50: < 31.6 nM
[1]
  viability, T/C: 91.4%
[2]
  viability, T/C: 71.3%
[3]
  viability, T/C: 60.9%
[4]
  viability, T/C: 47.2%
[5]
  viability, T/C: 39.9%
[6]
  viability, T/C: 35.3%
[7]
  viability, T/C: 79.8%
[8]
  viability, T/C: 83.6%
[9]
  viability, T/C: 55.4%
[10]
  viability, T/C: 40.3%
[11]
  viability, T/C: 31.1%
[12]
  viability, T/C: 26.9%
[13]
  viability, T/C: 68.7%
[14]
  viability, T/C: 61.3%
[15]
  viability, T/C: 45%
[16]
  viability, T/C: 33.2%
[17]
  viability, T/C: 25.8%
[18]
  viability, T/C: 19%
[19]
  viability, T/C: 55.1%
[20]
  viability, T/C: 46%
[21]
  viability, T/C: 29.6%
[22]
  viability, T/C: 23.1%
[23]
  viability, T/C: 16.4%
[24]
  viability, T/C: 14.8%
[25]
  viability, T/C: 35.3%
[26]
  viability, T/C: 27.9%
[27]
  viability, T/C: 19.7%
[28]
  viability, T/C: 14%
[29]
  viability, T/C: 10.6%
[30]
  viability, T/C: 7.75%
[31]
  viability, T/C: 15.9%
[32]
  viability, T/C: 16.8%
[33]
  viability, T/C: 11.1%
[34]
  viability, T/C: 7.03%
[35]
  viability, T/C: 5.65%
[36]
  viability, T/C: 4.52%

## C=CC(=O)N1CCN(c2nc(=O)n(-c3c(C)ccnc3C(C)C)c3nc(-c4c(O)cccc4F)c(F)cc23)C(C)C1 (stereo not drawn) + COc1c(OCCCN2CCOCC2)ccc2c3n(c(=NC(=O)c4cnc(N)nc4)nc12)CCN3
Second compound 0.00316 µM
  IC50: > 10000 nM
Second compound 0.01 µM
  IC50: > 10000 nM
Second compound 0.0316 µM
  IC50: > 10000 nM
Second compound 0.1 µM
  IC50: > 10000 nM
Second compound 0.316 µM
  IC50: < 31.6 nM
Second compound 1 µM
  IC50: < 31.6 nM
[1]
  viability, T/C: 99.8%
[2]
  viability, T/C: 99.1%
[3]
  viability, T/C: 118%
[4]
  viability, T/C: 129%
[5]
  viability, T/C: 137%
[6]
  viability, T/C: 104%
[7]
  viability, T/C: 99.8%
[8]
  viability, T/C: 92.7%
[9]
  viability, T/C: 108%
[10]
  viability, T/C: 99.9%
[11]
  viability, T/C: 106%
[12]
  viability, T/C: 109%
[13]
  viability, T/C: 82.6%
[14]
  viability, T/C: 88.3%
[15]
  viability, T/C: 85.4%
[16]
  viability, T/C: 81.5%
[17]
  viability, T/C: 90.7%
[18]
  viability, T/C: 85.6%
[19]
  viability, T/C: 60.7%
[20]
  viability, T/C: 52.7%
[21]
  viability, T/C: 62.5%
[22]
  viability, T/C: 74.3%
[23]
  viability, T/C: 70.8%
[24]
  viability, T/C: 71.9%
[25]
  viability, T/C: 37.7%
[26]
  viability, T/C: 42.5%
[27]
  viability, T/C: 38.2%
[28]
  viability, T/C: 42%
[29]
  viability, T/C: 48.2%
[30]
  viability, T/C: 40.5%
[31]
  viability, T/C: 21%
[32]
  viability, T/C: 22.6%
[33]
  viability, T/C: 20.4%
[34]
  viability, T/C: 22%
[35]
  viability, T/C: 23.3%
[36]
  viability, T/C: 20.7%

## CC(Cn1ccc(-c2ccc(C#N)c(Cl)c2)n1)NC(=O)c1cc(C(C)O)[nH]n1 (stereo not drawn) + COc1c(OCCCN2CCOCC2)ccc2c3n(c(=NC(=O)c4cnc(N)nc4)nc12)CCN3
Second compound 0.00316 µM
  IC50: > 10000 nM
Second compound 0.01 µM
  IC50: > 10000 nM
Second compound 0.0316 µM
  IC50: > 10000 nM
Second compound 0.1 µM
  IC50: > 10000 nM
Second compound 0.316 µM
  IC50: < 31.6 nM
Second compound 1 µM
  IC50: < 31.6 nM
[1]
  viability, T/C: 103%
[2]
  viability, T/C: 91.1%
[3]
  viability, T/C: 98%
[4]
  viability, T/C: 99%
[5]
  viability, T/C: 96.9%
[6]
  viability, T/C: 102%
[7]
  viability, T/C: 90.5%
[8]
  viability, T/C: 97.2%
[9]
  viability, T/C: 92.6%
[10]
  viability, T/C: 93.1%
[11]
  viability, T/C: 103%
[12]
  viability, T/C: 89.7%
[13]
  viability, T/C: 69.7%
[14]
  viability, T/C: 79.4%
[15]
  viability, T/C: 85.6%
[16]
  viability, T/C: 80%
[17]
  viability, T/C: 78.9%
[18]
  viability, T/C: 78.7%
[19]
  viability, T/C: 55%
[20]
  viability, T/C: 56.6%
[21]
  viability, T/C: 66.7%
[22]
  viability, T/C: 64.8%
[23]
  viability, T/C: 72.3%
[24]
  viability, T/C: 56.1%
[25]
  viability, T/C: 34.1%
[26]
  viability, T/C: 38.9%
[27]
  viability, T/C: 40%
[28]
  viability, T/C: 41%
[29]
  viability, T/C: 40.5%
[30]
  viability, T/C: 39.9%
[31]
  viability, T/C: 25.2%
[32]
  viability, T/C: 17.5%
[33]
  viability, T/C: 23%
[34]
  viability, T/C: 18%
[35]
  viability, T/C: 22.1%
[36]
  viability, T/C: 17.5%

## CC1(C)CCC(Nc2ncc(C(F)(F)F)c(-c3c[nH]c4c(P(C)(C)=O)c(C#N)ccc34)n2)CN1 (stereo not drawn) + COc1c(OCCCN2CCOCC2)ccc2c3n(c(=NC(=O)c4cnc(N)nc4)nc12)CCN3
Second compound 0.00316 µM
  IC50: 5540 nM
Second compound 0.01 µM
  IC50: 5120 nM
Second compound 0.0316 µM
  IC50: 4480 nM
Second compound 0.1 µM
  IC50: 3460 nM
Second compound 0.316 µM
  IC50: < 31.6 nM
Second compound 1 µM
  IC50: < 31.6 nM
[1]
  viability, T/C: 106%
[2]
  viability, T/C: 74.7%
[3]
  viability, T/C: 80%
[4]
  viability, T/C: 68.6%
[5]
  viability, T/C: 86.3%
[6]
  viability, T/C: 15%
[7]
  viability, T/C: 91.2%
[8]
  viability, T/C: 78.9%
[9]
  viability, T/C: 75.2%
[10]
  viability, T/C: 75.8%
[11]
  viability, T/C: 76.4%
[12]
  viability, T/C: 13.6%
[13]
  viability, T/C: 71.8%
[14]
  viability, T/C: 65.2%
[15]
  viability, T/C: 63.7%
[16]
  viability, T/C: 64.6%
[17]
  viability, T/C: 66%
[18]
  viability, T/C: 13%
[19]
  viability, T/C: 59.5%
[20]
  viability, T/C: 53.4%
[21]
  viability, T/C: 52.1%
[22]
  viability, T/C: 49.7%
[23]
  viability, T/C: 53.7%
[24]
  viability, T/C: 8.16%
[25]
  viability, T/C: 34.6%
[26]
  viability, T/C: 30.2%
[27]
  viability, T/C: 34%
[28]
  viability, T/C: 34%
[29]
  viability, T/C: 28.5%
[30]
  viability, T/C: 6.2%
[31]
  viability, T/C: 17%
[32]
  viability, T/C: 14.3%
[33]
  viability, T/C: 15.9%
[34]
  viability, T/C: 17%
[35]
  viability, T/C: 15.1%
[36]
  viability, T/C: 4.85%
